Test [1] has as its system Human lens epithelial cells (HLEpiC). As to the kind of experiment: Inhibitory action on actin stress fiber formation (phalloidin staining, confocal microscopy). As to conditions: treated about an hour. In kind it is cell-based. On the procedure:
Human lens epithelial cells (HLEpiC (ScienCell Research Laboratories)) were diluted with a medium (Epithelial Cell Medium (ScienCell Research Laboratories)), dispensed to each well of Poly-L-lysine (ScienCell Research Laboratories) coated Imaging Chamber CG at 100 μL/well (about 5000 cells/cm^2), and cultured in a carbon dioxide incubator (37° C., 5% CO2) until about 50% confluent. The medium was removed with vacuum suction and a test substance, a positive control, a comparative control, or the medium (control) at each concentration given below was added to each well at 300 μL/well:
Test substance: Ripasudil with a concentration of 10 μM, 100 μM or 1 mM,
Positive control: Cytochalasin D with a concentration of 2 μM,
These were treated in a carbon dioxide incubator (37° C., 5% CO2) for about an hour, and then washed once with the medium. 4% Paraformaldehyde Phosphate Buffer Solution (Wako Pure Chemical Industries, Ltd.) (hereinafter, referred to as a fixative solution) was added at 300 μL/well, and fixation was carried out at room temperature for 2 minutes. After washing with the medium, 0.5% Triton X-100 (Roche Diagnostics K.K.) was added at 300 μL/well, and penetrated at room temperature for 2 minutes. After washing with the medium, the fixative solution was added at 300 μL/well, and fixation was carried out at room temperature for 20 minutes.
Separately, 25 μL of 14 μM Actin-Stain™ 555 phalloidin (Cytoskeleton, Inc.) (hereinafter, referred to as Phalloidin) was added to 3475 μL of 10 mM phosphate buffered saline (Wako Pure Chemical Industries, Ltd.) to produce 100 nM Phalloidin.
This 100 nM Phalloidin was added to each well washed with the medium at 200 μL/well, and staining was carried out at room temperature in a dark place for about 60 minutes.
After washing with the medium, the chamber was removed, and […] Mounting Medium with DAPI (Vector Laboratories, Inc.) was dropped onto a cover glass with a few drops. A slide glass was placed thereon and this was left to stand at room temperature in a dark place for 30 minutes or more, and adhesion and nuclear staining were carried out and then observed by a confocal laser scanning microscope.

Test [2] concerns HLEpiC. As to the kind of experiment: Inhibitory action on cell migration (Oris Cell Migration plate). In kind it is cell-based, human. As to conditions: about 24 and 48 hours after treatment. The method, then: HLEpiC was diluted with a medium (Epithelial Cell Medium) and dispensed to Poly-L-lysine coated Oris™ Cell Migration 96 well plate, to which a stopper was firmly attached, at 50 μL/well (25000 cells/well) and cultured in a carbon dioxide incubator (37° C., 5% CO2) for 24 hours. The stopper was removed, and after brief washing with the medium, a solution obtained by adding 5 μL of 10 mM Cell Tracker Green Fluorescent Probe (Lonza Walkersville, Inc.) to 4995 μL of the medium was added at 100 μL/well, and the cells were stained in a carbon dioxide incubator (37° C., 5% CO2) for about 30 minutes. After brief washing with the medium, the medium was further added and the cells were cultured in a carbon dioxide incubator (37° C., 5% CO2) for about 30 minutes.
After brief washing with the medium, a test substance, a positive control, a comparative control or the medium (control) at each concentration given below was added at 100 μL/well.
Test substance: Ripasudil with a concentration of […], 100 μM or 1 mM,
Positive control: CD with a concentration of 2 μM,
These were cultured in a carbon dioxide incubator (37° C., 5% CO2). The state of HLEpiC in the Detection Zone in each sample was observed by a confocal laser scanning microscope about 24 hours after the treatment and 48 hours after the treatment.

Test [3] deals with HLEpiC. The experiment in a line: Reversibility of inhibition of cell migration after removal. In kind it is cell-based, human. The note with it: for time after removal at which Detection Zone was filled with HLEpiC: then removal. The method, then: After the operation in Example 4, the test substance, the positive control, or the comparative control was removed, and after brief washing with the medium, the medium was added at 100 μL/well, and the cells were cultured in a carbon dioxide incubator (37° C., 5% CO2).

Test [4] relates to HT-1080 cell-containing collagen gel. As to the kind of experiment: Inhibitory action on collagen gel contraction. In kind it is cell-based. Set-up: key: +: a contraction level was almost equal to that of a group to which Ripasudil was not added; ++: contraction was inhibited; +++: contraction was significantly inhibited. The note with it: HT1080 collagen gel, two or three days. The method, then:
HT-1080 cell suspension adjusted to a density of 150000 to 200000 cells/mL with a medium (medium: E'MEM (Sigma)/10% FBS/NEAA/PCSM), and a solution, obtained by mixing A, B and C solutions (A solution: Cellmatrix (Collagen Type I 3 mg/mL), B solution: concentrated culture solution, 10×MEM Hank's culture solution, and C solution: buffer solution for reconstitution) of collagen gel culture kit (Nitta Gelatin Inc.) mixed at a ratio of 8:1:1 and cooling the obtained mixture, were mixed at a ratio of 1.4:1, and the obtained mixture was seeded in a 48 Well Plate at 500 μL/well and gelatinized in a CO2 incubator to produce a cell-containing collagen gel. After gelation, 1 mL of the medium in which Ripasudil was adjusted to 0.1 μM, 1 μM or 10 μM was added on the gel, and an injection needle was inserted between the gel and the wall surface to release the gel from the wall surface, and the gel was incubated to stand in a CO2 incubator. After two or three days, the contraction of the gel was observed, and photos were taken to evaluate the actions of Ripasudil.

For `C[C@H]1CNCCCN1S(=O)(=O)c1cccc2cncc(F)c12` [Ripasudil, 4-fluoro-5-{[(2S)-2-methyl-1,4-diazepan-1-yl]sulfonyl}isoquinoline], the “actin stress fibers (observation)” value in test [1] (10 μM) is “slightly disappear”; in test [1] (100 μM), “significantly disappear”; in test [1] (1 mM), “significantly disappear”. In addition, the results for the “cell migration into Detection Zone (observation)” value in test [2] (100 μM) and in test [2] (1 mM) were “tendency of inhibition of cell migration” and “definite inhibitory action on cell migration”, respectively. The figures for the “time after removal at which Detection Zone was filled with HLEpiC” value in test [3] (100 μM treatment) and in test [3] (1 mM treatment) were “about 24 hours” and 116 h, respectively. In addition, the “state of Detection Zone about 48 hours after removal” value in test [3] (1 mM treatment, about 48 hours after removal) is recorded as “not filled with HLEpiC”. Moreover, the Inhibition of contraction entry in test [4] (Ripasudil 0.1 μM) is “+”; in test [4] (Ripasudil 1.0 μM), “++”; in test [4] (Ripasudil 10.0 μM), “+++”.

Source of the values: patent publication US9844556B2, “Preventive/therapeutic method and preventive/therapeutic agent for complications after cataract surgery” (KOWA COMPANY, LTD., priority 2015, dated 2017).
